Assay: Solubility of cyclodextrins in an aqueous gelatin/glycerin solution
Type: physicochemical
Experimental: The solubility of β-, γ and hydroxypropyl-β-(HPβ) cyclodextrin in the solution containing gelatin was verified. This study was conducted by dissolving quantities of 2.5% or of 5% (W/V) of β-, γ or hydroxypropyl-β-(HPβ) cyclodextrin in an aqueous solution containing 36% (W/W) of gelatin and 15% (W/W) of anhydrous glycerin.

[1] = 5% (W/V) cyclodextrin in aqueous solution containing 36% (W/W) gelatin and 15% (W/W) anhydrous glycerin

Compound	solubility in the solution containing gelatin (2.5% (W/V) cyclodextrin in aqueous solution containing 36% (W/W) gelatin and 15% (W/W) anhydrous glycerin)	solubility in the solution containing gelatin [1]
OC[C@H]1O[C@@H]2O[C@H]3[C@H](O)[C@@H](O)[C@@H](O[C@H]4[C@H](O)[C@@H](O)[C@@H](O[C@H]5[C@H](O)[C@@H](O)[C@@H](O[C@H]6[C@H](O)[C@@H](O)[C@@H](O[C@H]7[C@H](O)[C@@H](O)[C@@H](O[C@H]8[C@H](O)[C@@H](O)[C@@H](O[C@H]1[C@H](O)[C@H]2O)O[C@@H]8CO)O[C@@H]7CO)O[C@@H]6CO)O[C@@H]5CO)O[C@@H]4CO)O[C@@H]3CO [β-cyclodextrin]	soluble	opalescent mixture
OC[C@H]1O[C@@H]2O[C@H]3[C@H](O)[C@@H](O)[C@@H](O[C@H]4[C@H](O)[C@@H](O)[C@@H](O[C@H]5[C@H](O)[C@@H](O)[C@@H](O[C@H]6[C@H](O)[C@@H](O)[C@@H](O[C@H]7[C@H](O)[C@@H](O)[C@@H](O[C@H]8[C@H](O)[C@@H](O)[C@@H](O[C@H]9[C@H](O)[C@@H](O)[C@@H](O[C@H]1[C@H](O)[C@H]2O)O[C@@H]9CO)O[C@@H]8CO)O[C@@H]7CO)O[C@@H]6CO)O[C@@H]5CO)O[C@@H]4CO)O[C@@H]3CO [γ-cyclodextrin]	–	soluble
hydroxypropyl-β-cyclodextrin	–	soluble

Source: patent publication US9168229B2, “Soft gelatin capsules” (ALTERGON S.A., priority 2005, dated 2015)
